What was measured:
[1] = system: ERK and p38 MAPK phosphorylation in RAW 264.7 cells; assay type: cell-based, murine
[2] = system: anthrax LeTx cytolysis of RAW 264.7 cells
[3] = molecular target: LF (anthrax lethal factor) (Bacillus anthracis, UniProt P15917); assay type: biochemical, B. anthracis
[4] = system: cleavage of MKK3b by LF in RAW 264.7 macrophages; assay type: cell-based, murine
LeTx intoxication = system: LeTx intoxication; design: species or system Balb/c mice; conditions: mouse, in vivo, iv

Substance	Restoration of ERK and p38 phosphorylation inhibited by LeTx [1]	Prevention of LeTx toxicity by pre-treatment of macrophages [2]	Protection of RAW 264.7 cells 24 hrs after LeTx treatment [2]	Protection of RAW 264.7 cells against cytotoxicity by LeTx (co-treatment) [2]	Protection of RAW 264.7 cells from LeTx induced cytotoxicity under serum-supplemented conditions [2]	Inhibition of in vitro MKK3b proteolysis by LF [3]	Inhibition of MKK3b cleavage in LeTx treated cells [4]	Protection of mice from LeTx intoxication (survival) (LeTx intoxication)
HNP-1	phosphorylation of these two MAPKs was restored	prevented LeTx toxicity in a HNP-1 dose dependent manner	protection was observed even 24 hrs after LeTx treatment	completely abolished cytotoxicity	still protected cells from LeTx induced cytotoxicity	proteolysis was efficiently inhibited	efficiently inhibited	–
HNP-2 (CYCRIPACIAGERRYGTCIYQGRLWAFCC; homo sapiens)	–	–	–	showed similar protection	–	–	–	–
LL-37	–	–	–	did not display any significant effect	–	did not prevent cleavage of MKK3b	–	had no effect on LeTx toxicity
Magainin I	–	–	–	–	–	did not prevent cleavage of MKK3b	–	–

Reference: patent US8227418B2 (priority 2004, dated 2012)
